The subject of one test is NUGC3 p53 Y220C. Description: Cell Proliferation Assay (CellTiter-Glo, CTG), NUGC3 p53 Y220C. In kind it is cell-based. As to conditions: Homo sapiens, NUGC-3, 120 h, NUGC3 cells; 5 days. Summed up: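 Tet-One inducible p53 Y220C or R273H constructs were stably introduced into NCI-H1299 by lentiviral transduction; NUGC3 was used as is. Cells (250-500 per well) were exposed to compound for 5 days, then CellTiter-Glo was added for 10 min at room temperature and IC50 was calculated from luminescence.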
A general note: In ATP-based viability assays light output follows the ATP content of the culture.

The next test has as its target p53 Y220C (Homo sapiens, UniProt P04637, Y220C). In words: Luciferase Reporter Assay (Luc), p53 response element, NClH1299 cells with inducible p53 Y220C. Format: cell-based. As to conditions: NClH1299 cells with inducible p53 Y220C, 6 hour; for AC50: read-out: Luc P53 Y220C AC50; for Emax: 10 uM tool compound as positive control. Summed up: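 Cells were seeded at 5,000 per well and induced with 0.5 ug/mL doxycycline for 24 hours, then exposed to compound for 6 hours. One-Glo reagent was added, plates shaken 5 minutes at room temperature, and luminescence read immediately.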
On the technique in general: Reporter assays use an easily measured gene product as a stand-in for the process of interest.

In a further test the test system is H1299 p53 R273H. In words: Cell Proliferation Assay (CellTiter-Glo, CTG), H1299 p53 R273H (NClH1299-inducible p53 R273H). As to conditions: Homo sapiens, NCI-H1299, 120 h, NClH1299-inducible p53 R273H cells; 5 days. In kind it is cell-based. The essentials:
(§1)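 NClH1299 lines stably transduced with Tet-inducible p53 Y220C or R273H, plus NUGC3, were treated with compound for 5 days at 250-500 cells/well. IC50 derived from CellTiter-Glo luminescent signal after 10 min room-temperature incubation.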

Another test relates to H1299 p53 Y220C. In words: Cell Proliferation Assay (CellTiter-Glo, CTG), H1299 p53 Y220C (NClH1299-inducible p53 Y220C). In kind it is cell-based. The settings on record: Homo sapiens, NCI-H1299, 120 h, NClH1299-inducible p53 Y220C cells; 5 days. The essentials:
as §1

In test [1] the target is T1, p53 Y220C mutant protein (amino acid residues 94-293) (Homo sapiens, UniProt P04637, Y220C).
T1 construct: p53 Y220C mutant protein (amino acid residues 94-293)
Description: Surface Plasmon Resonance (SPR) assay, Kd_kinetic. The settings on record: SPR; p53 Y220C; read-out: SPR P53 Y220C KD kinetic. In kind it is binding. The essentials: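 Biacore 8K SPR; 16 or 20 °C; Tris 50 mM pH 7.5, NaCl 100 mM, DTT 1 mM, Brij35 0.01%, Tween-20 0.05%, DMSO 1%. Kd_kinetic by 1:1 fit.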

pIC50, pKd: −log10 of the molar value.

T1 sequence (P04637 94-293, stated change not applied): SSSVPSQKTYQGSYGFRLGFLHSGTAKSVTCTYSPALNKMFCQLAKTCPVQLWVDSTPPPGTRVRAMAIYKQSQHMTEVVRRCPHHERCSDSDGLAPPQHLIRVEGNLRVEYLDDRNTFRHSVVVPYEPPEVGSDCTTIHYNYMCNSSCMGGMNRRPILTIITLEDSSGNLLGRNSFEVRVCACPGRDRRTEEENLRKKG

For orientation: pIC50 means −log10 of the IC50, conventionally taken in molar units. As a reminder, the AC50 is the concentration at which the activity in the assay is half-maximal. The Emax is the maximal effect, on the per cent scale that the assay sets. Usually pKd stands for −log10 of the Kd, conventionally taken in molar units. As for `CNC(=O)c1ccc(OC)c(NCC#Cc2cc3c(N[C@@H]4CNC[C@@H]4F)cccn3c2SC(F)(F)F)c1` [Example 478], the pIC50 with NUGC3 p53 Y220C was greater than 6.12; with H1299 p53 R273H, no more than 5.00; in the test on H1299 p53 Y220C it was greater than 6.12. In addition, the AC50 on p53 Y220C is less than 0.75 µM. On p53 Y220C, this compound had an Emax greater than 90%. Moreover, the pKd in test [1] was greater than 8.00.
Consider `CNC(=O)c1cc(NCC#Cc2cc3c(N[C@@H]4CCN(C)C[C@@H]4F)cccn3c2SC(F)(F)F)c2cncn2c1` [Example 479], for which the figures for the pIC50 with NUGC3 p53 Y220C, with H1299 p53 R273H and in the test with H1299 p53 Y220C were greater than 6.12, no more than 5.00 and greater than 6.12, respectively. Also, on p53 Y220C, the AC50 was less than 0.75 µM. In addition, the Emax at p53 Y220C is greater than 90%. Besides, the pKd in test [1] was greater than 8.00.
`CNC(=O)c1ccc(OC)c(NCC#Cc2cc3c(N[C@@H]4CCN(C5COC5)C[C@@H]4F)cccn3c2SC(F)(F)F)c1` [Example 481, 3-{[3-(8-{[(3S,4R)-3-fluoro-1-(oxetan-3-yl)piperidin-4-yl]amino}-3-[(trifluoromethyl)sulfanyl]indolizin-2-yl)prop-2-yn-1-yl]amino}-4-methoxy-N-methylbenzamide]: the figures for the pIC50 in the test with NUGC3 p53 Y220C, in the test with H1299 p53 R273H and in the test on H1299 p53 Y220C were greater than 6.12, 5.10 to 5.30 and greater than 6.12, respectively. Besides, on p53 Y220C, the AC50 is less than 0.75 µM. At p53 Y220C, the Emax was greater than 90%. Further, in test [1], the pKd was greater than 8.00.
In the case of `COc1ccc(C(=O)N[C@H]2C[C@H](O)C2)cc1NCC#Cc1cc2c(N[C@@H]3CCN(C)C[C@@H]3F)cccn2c1SC(F)(F)F` [Example 482], the pIC50 with NUGC3 p53 Y220C was greater than 6.12; with H1299 p53 R273H, no more than 5.00; with H1299 p53 Y220C, greater than 6.12. Moreover, the AC50 at p53 Y220C is less than 0.75 µM. Besides, the Emax on p53 Y220C is greater than 90%. Also, the pKd in test [1] was greater than 8.00.
`CNC(=O)c1cc(NCC#Cc2cc3c(N[C@@H]4CCN(C)C[C@@H]4F)cccn3c2SC(F)(F)F)c2nncn2c1` [Example 483, 8-{[3-(8-{[(3S,4R)-3-fluoro-1-methylpiperidin-4-yl]amino}-3-[(trifluoromethyl)sulfanyl]indolizin-2-yl)prop-2-yn-1-yl]amino}-N-methyl-[1,2,4]triazolo[4,3-a]pyridine-6-carboxamide]: the figures for the pIC50 in the test with NUGC3 p53 Y220C, in the test with H1299 p53 R273H and in the test with H1299 p53 Y220C were greater than 6.12, no more than 5.00 and greater than 6.12, respectively. Further, on p53 Y220C, the AC50 was less than 0.75 µM. The compound further registered an Emax at p53 Y220C greater than 90%. Further, in test [1], the pKd was greater than 8.00.
`O=C(NC[C@@H]1COCCO1)c1ccc(NCC#Cc2cc3c(N[C@@H]4CCNC[C@@H]4F)cccn3c2SC(F)(F)F)cc1` [Example 484]: the pIC50 in the test on NUGC3 p53 Y220C was greater than 6.12; in the test with H1299 p53 R273H it was 5.00 to 5.10; in the test on H1299 p53 Y220C, greater than 6.12. Further, on p53 Y220C, the AC50 was less than 0.75 µM. Also, the Emax at p53 Y220C was greater than 90%. In addition, the pKd in test [1] was greater than 8.00.
Consider `C[C@@H](O)CNC(=O)c1ccc(OC2COC2)c(NCC#Cc2cc3c(N[C@@H]4CCN(C)C[C@@H]4F)cccn3c2SC(F)(F)F)c1` [Example 486], for which the values for the pIC50 with NUGC3 p53 Y220C, with H1299 p53 R273H and in the test on H1299 p53 Y220C were greater than 6.12, no more than 5.00 and greater than 6.12, respectively. Further, the AC50 on p53 Y220C is less than 0.75 µM. At p53 Y220C, this compound had an Emax greater than 90%. The pKd in test [1] is greater than 8.00.
Turning to `CNC(=O)c1ccc(NCC#Cc2cc3c(N[C@@H]4CCNC[C@@H]4F)cccn3c2SC(F)(F)F)c(OC)n1` [Example 488], the results for the pIC50 in the test on NUGC3 p53 Y220C, in the test on H1299 p53 R273H and in the test with H1299 p53 Y220C were greater than 6.12, 5.10 to 5.30 and greater than 6.12, respectively. Further, the AC50 at p53 Y220C is less than 0.75 µM. The same compound came in with an Emax on p53 Y220C greater than 90%. The pKd in test [1] was greater than 8.00.
As to `CNC(=O)c1ccc(NCC#Cc2cc3c(N[C@@H]4CCNC[C@@H]4F)cccn3c2SC(F)(F)F)cc1` [Example 492, 4-{[3-(8-{[(3S,4R)-3-fluoropiperidin-4-yl]amino}-3-[(trifluoromethyl)sulfanyl]indolizin-2-yl)prop-2-yn-1-yl]amino}-N-methylbenzamide], the pIC50 in the test on NUGC3 p53 Y220C is greater than 6.12; with H1299 p53 R273H, 5.10 to 5.30; with H1299 p53 Y220C, greater than 6.12. Moreover, on p53 Y220C, the AC50 is less than 0.75 µM. Besides, the Emax on p53 Y220C is greater than 90%. The pKd in test [1] was greater than 8.00.
Regarding `CNC(=O)c1ccc(NCC#Cc2cc3c(N[C@@H]4CCN(C)C[C@@H]4F)cccn3c2SC(F)(F)F)c(C(=O)NC)c1` [Example 493, 4-{[3-(8-{[(3S,4R)-3-fluoro-1-methylpiperidin-4-yl]amino}-3-[(trifluoromethyl)sulfanyl]indolizin-2-yl)prop-2-yn-1-yl]amino}-N1,N3-dimethylbenzene-1,3-dicarboxamide], the pIC50 with NUGC3 p53 Y220C is greater than 6.12; in the test on H1299 p53 R273H, no more than 5.00; with H1299 p53 Y220C it was greater than 6.12. The AC50 at p53 Y220C is less than 0.75 µM. The same compound had an Emax at p53 Y220C greater than 90%. For the same compound, in test [1], the pKd was greater than 8.00.
In the case of `CNC(=O)c1ccc(NCC#Cc2cc3c(N[C@@H]4CCN(C)C[C@@H]4F)cccn3c2SC(F)(F)F)c(C(=O)NC)n1` [Example 495, 3-{[3-(8-{[(3S,4R)-3-fluoro-1-methylpiperidin-4-yl]amino}-3-[(trifluoromethyl)sulfanyl]indolizin-2-yl)prop-2-yn-1-yl]amino}-N2,N6-dimethylpyridine-2,6-dicarboxamide], the pIC50 in the test with NUGC3 p53 Y220C is greater than 6.12; in the test on H1299 p53 R273H it was 5.10 to 5.30; in the test with H1299 p53 Y220C, greater than 6.12. Further, on p53 Y220C, the AC50 was less than 0.75 µM. Further, the Emax on p53 Y220C is greater than 90%. In test [1], the pKd is greater than 8.00.
As to `CNC(=O)c1cnc(C(=O)NC)c(NCC#Cc2cc3c(N[C@@H]4CCN(C)C[C@@H]4F)cccn3c2SC(F)(F)F)c1` [Example 496], the negative-log IC50 (pIC50) with NUGC3 p53 Y220C was greater than 6.12; in the test with H1299 p53 R273H, 5.10 to 5.30; with H1299 p53 Y220C, greater than 6.12. Further, on p53 Y220C, the AC50 is less than 0.75 µM. This compound also had an Emax on p53 Y220C greater than 90%. The pKd in test [1] was greater than 8.00.
Take `CNC(=O)c1ccc(O[C@H]2C[C@H](O)C2)c(NCC#Cc2cc3c(N[C@@H]4CCN(C)C[C@@H]4F)cccn3c2SC(F)(F)F)c1` [Example 497, 3-{[3-(8-{[(3S,4R)-3-fluoro-1-methylpiperidin-4-yl]amino}-3-[(trifluoromethyl)sulfanyl]indolizin-2-yl)prop-2-yn-1-yl]amino}-N-methyl-4-[(1r,3r)-3-hydroxycyclobutoxy]benzamide]: the results for the pIC50 in the test on NUGC3 p53 Y220C, with H1299 p53 R273H and in the test on H1299 p53 Y220C were greater than 6.12, no more than 5.00 and greater than 6.12, respectively. The AC50 on p53 Y220C was less than 0.75 µM. At p53 Y220C, this compound returned an Emax greater than 90%. In addition, the pKd in test [1] is greater than 8.00.
For `CNC(=O)c1cnc(OC)c(NCC#Cc2cc3c(N[C@@H]4CCNC[C@@H]4F)cccn3c2SC(F)(F)F)c1` [Example 498], the pIC50 in the test on NUGC3 p53 Y220C was greater than 6.12; in the test on H1299 p53 R273H, no more than 5.00; in the test with H1299 p53 Y220C it was greater than 6.12. Further, on p53 Y220C, the AC50 is less than 0.75 µM. The same compound came in with an Emax at p53 Y220C greater than 90%. The pKd in test [1] is greater than 8.00.
`CNC(=O)c1ccc(OC2COC2)c(NCC#Cc2cc3c(N[C@@H]4CCN(C)C[C@@H]4F)cccn3c2SC(F)(F)F)c1` [Example 499]: the pIC50 was greater than 6.12 in the test with NUGC3 p53 Y220C, 5.10 to 5.30 in the test with H1299 p53 R273H and greater than 6.12 in the test on H1299 p53 Y220C. For the same compound, the AC50 at p53 Y220C is less than 0.75 µM. The same compound displayed an Emax on p53 Y220C greater than 90%. Moreover, the pKd in test [1] is greater than 8.00.
